Measurements: PMC5471252, “Anti-leukemia activity of a Hsp70 inhibitor and its hybrid molecules” (Scientific Reports, 2017)

Experiments:
HL-60 cells = experiment: MTT assay, cell viability of HL-60 cells; assay type: cell-based; conditions: Homo sapiens, 48 h, mean ± s.d., n = 3, read-out: IC50 values of compounds for leukemia cells
Jurkat cells = experiment: MTT assay, cell viability of Jurkat cells; assay type: cell-based; conditions: Homo sapiens, 48 h, mean ± s.d., n = 3, read-out: IC50 values of compounds for leukemia cells
[1] = test system: AIF translocation in HL-60 and K562 cells; experiment: AIF translocation to the nucleus (western blot, immunocytochemistry); assay type: cell-based, human; conditions: 24 h; 2 μM for Az-O3-GD
Description: Apoptosis-inducing factor (AIF) is known to be translocated from the cytosol to the nucleus during caspase-independent apoptosis (Supplementary Fig. S8b)[39]. In addition, it is also known that Hsp70 interacts with AIF directly and this interacting event results in blocking translocation of AIF to the nucleus and, in turn, prevents caspase-independent apoptosis. Because of these phenomena, we tested if Az has an influence on AIF-mediated caspase-independent apoptosis. To probe this issue, HL-60 and K562 cells were exposed to Az and the levels of AIF in the cytosolic and nuclear fractions were then determined. AIF translocation to the nucleus was not observed in Az-treated cells, based on western blot analysis (Fig. 4d). Additional evidence to support this conclusion was obtained from immunocytochemical analysis of leukemia cells treated with Az (Fig. 4d).
(§1) Western blot analysis. […] peroxidase-conjugated goat anti-rabbit IgG (1:2000, Santa Cruz Bio Technology) and goat anti-mouse IgG (1:2000, Santa Cruz Bio Technology) were used as the secondary antibodies. The blots were developed by using a West-ZOL® plus Western Blot Detection System (Intron Biotechnology Inc., South Korea). Western blot signals were analyzed by using a G:BOX Chemi Fluorescent & Chemiluminescent Imaging System.
Immunocytochemistry. […] Cell images were analyzed using the ZEN 2011 software.

K562 cells = experiment: MTT assay, cell viability of K562 cells; assay type: cell-based; conditions: Homo sapiens, 48 h, mean ± s.d., n = 3, read-out: IC50 values of compounds for leukemia cells
U937 cells = experiment: MTT assay, cell viability of U937 cells; assay type: cell-based; conditions: Homo sapiens, U-937, 48 h, mean ± s.d., n = 3, read-out: IC50 values of compounds for leukemia cells
[2] = test system: Hsp70 level in HL-60 and K562 cells; experiment: Western blot of Hsp70 and Hsp90 levels; assay type: cell-based, human; conditions: cells treated 24 h
Description: Because Az-O3-GD promotes caspase activation in leukemia cells, it was anticipated that procaspase-9, procaspase-3 and PARP would be cleaved in treated cells. To test this possibility, HL-60 and K562 cells were exposed to Az-O3-GD, along with Az and GD as controls and western blot analysis was then carried out. […] Although Az-O3-GD upregulates Hsp70, the presence of the Hsp70 inhibitor in this hybrid causes its cytotoxicity against leukemia cells to be higher than that of GD. Finally, we examined the effect of Az-O3-GD on AIF-mediated caspase-independent apoptosis. To this end, HL-60 and K562 cells were incubated with Az-O3-GD for 24 h.
as §1

THP-1 cells = experiment: MTT assay, cell viability of THP-1 cells; assay type: cell-based; conditions: Homo sapiens, 48 h, mean ± s.d., n = 3, read-out: IC50 values of compounds for leukemia cells
[3] = test system: human leukemia cells (HL-60, KG-1, THP-1, U937, Jurkat and K562 cells); experiment: MTT assay, all tested leukemia cells (summary statements); conditions: all tested leukemia cells, MTT, compared with Az, GD and imatinib
Description: To assess anti-leukemia activity of Az, several human leukemia cells (HL-60 cells, acute myeloid leukemia; Jurkat cells, acute T-lymphocytic leukemia; KG-1 cells, acute myeloid leukemia; U937 cells, acute myeloid leukemia; THP-1 cells, acute monocytic leukemia; K562 cells, chronic myeloid leukemia) were incubated with Az for 48 h. […] An MTT assay was then performed to measure cell viabilities.
Cells were exposed to each compound (a HCl salt form) at various concentrations for indicated time periods (24 or 48 h) in culture media. MTT assays were conducted according to known procedures. The absorbance at 570 nm was determined by employing a microplate reader (TECAN, Infinite® 200 PRO).

HL-60 and K562 cells [4] = experiment: Flow cytometry, JC-1 mitochondrial membrane potential; assay type: cell-based, human; conditions: 24 h; 10 µM Az or 4 µM Az-O3-GD
Description: (§2) To determine whether Az promotes leukemia cell death via apoptosis, acute leukemia HL-60 and chronic leukemia K562 cells were independently incubated with Az. The treated cells were then exposed to a mixed solution of fluorescein-annexin V and propidium iodide (PI) and flow cytometry analysis was conducted. […] The size of the treated cells was also assessed by using flow cytometry. […] We also investigated if the mitochondrial membrane potential in cells treated with Az is disrupted. To test this possibility, HL-60 and K562 cells were exposed to Az and subsequently stained with a membrane potential sensitive JC-1 probe. […] This serves as another evidence for apoptosis induced by Az.
JC-1 staining: HL-60 and K562 cells were treated with each compound and then with 2.5 μg/mL JC-1 (Anaspec) in PBS for 15 min. Flow cytometry was conducted with a BD FACSVerse™ instrument (the red fluorescence signal: λex = 550 nm, λem = 600 nm; the green fluorescence signal: λex = 485 nm, λem = 535 nm) and the data were analyzed using a FlowJo™ software.

[5] = test system: caspase activity of HL-60 and K562 cells; experiment: Caspase activity assay with Ac-DEVD-pNA in cell lysates; assay type: cell-based, human; conditions: lysates of cells treated 24 h
Description: Because Az inhibits the association of Hsp70 with Apaf-1, caspase associated proteolytic activities should increase in cells treated with Az. To determine whether this event occurs, caspase activities of HL-60 and K562 cells treated with Az were measured by using the colorimetric substrate, Ac-DEVD-pNA (pNA, p-nitroaniline). […] We also examined whether leukemia cells are protected from the effect of Az by ZVAD-FMK (benzyloxycarbonyl-Val-Ala-Asp(OMe) fluoromethyl ketone, a cell-permeable inhibitor of pan-caspases). HL-60 and K562 cells were pre-incubated with ZVAD-FMK for 3 h and subsequently exposed to Az.
HL-60 and K562 cells treated with each compound for 24 h were lysed in a buffer containing 50 mM HEPES (pH 7.4), 5 mM CHAPS and 5 mM DTT. Assay buffer containing 20 mM HEPES (pH 7.4), 0.01% CHAPS, 5 mM DTT and 2 mM EDTA was added to cell lysates. Caspase activity was measured in the absence or presence of acetyl-DEVD-pNA (200 μM) (Sigma-Aldrich) by using a microplate reader (monitored at 405 nm).

KG-1 cells = experiment: MTT assay, cell viability of KG-1 cells; assay type: cell-based; conditions: Homo sapiens, 48 h, mean ± s.d., n = 3, read-out: IC50 values of compounds for leukemia cells
HL-60 and K562 cells [6] = experiment: Flow cytometry, fluorescein-annexin V and PI staining; assay type: cell-based, human; conditions: 24 h; 10 µM Az, 10 µM GD or 4 µM Az-O3-GD
Description: as §2
HL-60 and K562 cells were incubated with each compound for 24 h in culture media. Cells were re-suspended with 500 μL binding buffer (10 mM HEPES, […] and 2.5 mM CaCl2, pH 7.5) and then incubated with the FITC-annexin V apoptosis detection kit with PI according to the protocol provided by the manufacturer. Flow cytometry was carried out by using a BD FACSVerse™ instrument (BD Biosciences) and the data were analyzed by using a FlowJo™ software (BD Biosciences).

## COc1ccc(-c2nc(-c3cc(C(F)(F)F)cc(C(F)(F)F)c3)n(Cc3ccc(C(=O)NCCCOCCOCCOCCCNC4=C5CC(C)CC(OC)C(O)C(C)C=C(C)C(OC(N)=O)C(OC)C=CC=C(C)C(=O)NC(=CC4=O)C5=O)cc3)c2-c2ccc(OC)cc2)cc1 (stereo not drawn) [Az-O3-GD]
HL-60 cells
  IC50: 740 ± 270 nM
Jurkat cells
  IC50: 570 ± 180 nM
[1]
  AIF translocation to the nucleus: does not elicit the translocation of AIF to the nucleus
K562 cells
  IC50: 720 ± 260 nM
U937 cells
  IC50: 1120 ± 440 nM
[2]
  translational level of Hsp70: upregulation of Hsp70
THP-1 cells
  IC50: 620 ± 270 nM
[3]
  cytotoxicity relative to the individual inhibitors: greatly enhanced cytotoxicities
HL-60 and K562 cells [4]
  mitochondrial membrane potential, JC-1 red fluorescence: significant decrease in the intensity of red fluorescence from JC-1
[5]
  caspase activity of treated cells: increase
KG-1 cells
  IC50: 1310 ± 300 nM
HL-60 and K562 cells [6]
  apoptosis, annexin V binding and PI uptake: induces apoptosis
